# Source: ChEMBL document CHEMBL1157527 (2008)
# System: Candida albicans
# Assay: Antifungal activity against Candida albicans; note: unit not given here
# Type: functional
row,SMILES,p(1/MIC)
1,Clc1ccc(Cn2cc(Cn3ccnc3)c3ccccc32)cc1,1.924
2,O=C(CCc1ccccc1)Nc1ccc2oc(-c3ccc(F)cc3)nc2c1,2.127
3,Cc1c(C(C)n2ccnc2)c2ccccc2n1Cc1ccc(Br)cc1 (stereo unspecified),2.404
4,CCCCCCCCCCCCCCC[N+](C)(C)[BH2-]C#N,1.724
5,Cc1c(Cn2ccnc2)c2ccccc2n1Cc1ccc(Cl)cc1,0.474
6,CC(C)(C)C(c1cn(Cc2ccc(Cl)cc2)c2ccccc12)n1ccnc1 (stereo unspecified),1.208
7,C[N+](C)([BH2-]C#N)CCCCCCCCCCCCCC[N+](C)(C)[BH2-]C#N,1.634
8,CCCCCCCCCCCOP(=O)(O)OC(Cn1cncn1)(Cn1cncn1)c1ccc(F)cc1F,3.148
9,CCCCCCCCCCC(Br)C(=O)OC(Cn1cncn1)(Cn1cncn1)c1ccc(F)cc1F (stereo unspecified),3.412
10,Cc1c(Cn2ccnc2)c2ccccc2n1Cc1ccc(F)cc1,2.496
11,Cc1c(Cn2ccnc2)c2cc(Br)ccc2n1Cc1ccccc1F,2.415
12,C=CCCCCCCCCCOP(=O)(OC)OC(Cn1cncn1)(Cn1cncn1)c1ccc(F)cc1F (stereo unspecified),2.616
13,C[N+](C)([BH2-]C#N)CC1(O)C=CCC1 (stereo unspecified),3.142
14,C[N+](C)(CCCCCCCCCC[N+](C)(C)[BH-](Br)C#N)[BH-](Br)C#N (stereo unspecified),2.146
15,CCCCCCCCCCCCCCOP(=O)(O)OC(Cn1cncn1)(Cn1cncn1)c1ccc(F)cc1F,3.208
16,Cc1c(C(C)n2ccnc2)c2ccccc2n1Cc1ccc(F)cc1 (stereo unspecified),1.819
17,O=C(OCCCl)OC(Cn1cncn1)(Cn1cncn1)c1ccc(F)cc1F,3.374
18,O=C(Nc1ccc2oc(-c3ccccc3)nc2c1)OCc1ccc(Cl)cc1,1.544
19,CCCCCCCCCCCCCCOP(=O)(OCCC#N)OC(Cn1cncn1)(Cn1cncn1)c1ccc(F)cc1F (stereo unspecified),3.17
20,O=C(Cc1ccccc1)Nc1ccc2oc(-c3ccc(F)cc3)nc2c1,1.82
21,CCCC(Br)C(=O)OC(Cn1cncn1)(Cn1cncn1)c1ccc(F)cc1F (stereo unspecified),2.768

row,SMILES,p(1/MIC)
1,CCCCCCCCCC(O)C[N+](C)(C)[BH2-]C#N (stereo unspecified),2.692
2,C=CCC[N+](C)(C)[BH2-]C#N,2.672
3,C[N+](C)([BH2-]C#N)CC(O)c1ccccc1 (stereo unspecified),2.389
4,C[N+](C)(CCCCCCCCCC[N+](C)(C)[B-](Br)(Br)C#N)[B-](Br)(Br)C#N,2.017
5,CC[N+](C)(C)[BH2-]C#N [(CYANOBORANYLIDENE)(ETHYL)DIMETHYLAMINE],3.649
6,O=C(Nc1ccc2oc(-c3ccc(F)cc3)nc2c1)SCc1ccccc1,1.813
7,CN(C)c1ccc(-c2nc3cc(NC(=O)OCc4ccccc4)ccc3o2)cc1,2.143
8,Cc1c(Cn2ccnc2)c2cc(Br)ccc2n1Cc1ccc(Cl)cc1,1.902
9,C=CCCCCCCCCCOP(=O)(OCCC#N)OC(Cn1cncn1)(Cn1cncn1)c1ccc(F)cc1F (stereo unspecified),2.314
10,CCCCCCCCCCCCCC(=O)OC(Cn1cncn1)(Cn1cncn1)c1ccc(F)cc1F,3.143
11,CCCCCCCCCCCOP(=O)(OCCC#N)OC(Cn1cncn1)(Cn1cncn1)c1ccc(F)cc1F (stereo unspecified),2.494
12,Fc1ccc(Cn2cc(Cn3ccnc3)c3ccccc32)c(F)c1,1.695
13,CCCCCCC(Br)C(=O)OC(Cn1cncn1)(Cn1cncn1)c1ccc(F)cc1F (stereo unspecified),1.431
14,CCc1ccc(-c2nc3cc(NC(=O)CCc4ccccc4)ccc3o2)cc1,1.813
15,C[N+](C)([BH2-]C(=O)O)CCCCCCCCCC[N+](C)(C)[BH2-]C(=O)O,2.274
16,CC(C)C(c1cn(Cc2ccc(Cl)cc2)c2ccccc12)n1ccnc1 (stereo unspecified),1.138
17,Fc1ccc(Cn2cc(Cn3ccnc3)c3ccccc32)cc1,1.117
18,O=C(Nc1ccc2oc(-c3ccccc3)nc2c1)OCc1ccccc1,1.505
19,CCC(Br)C(=O)OC(Cn1cncn1)(Cn1cncn1)c1ccc(F)cc1F (stereo unspecified),2.846
20,CCCCCCCCCCCCC[N+](C)(C)[BH2-]C#N,1.763
21,CCCCCCCCOP(=O)(OCCC#N)OC(Cn1cncn1)(Cn1cncn1)c1ccc(F)cc1F (stereo unspecified),3.091

row,SMILES,p(1/MIC)
1,O=C(Nc1ccc2oc(-c3ccc(F)cc3)nc2c1)OCc1ccc(Cl)cc1,1.806
2,Cc1c(Cn2ccnc2)c2ccccc2n1Cc1cc(Cl)ccc1Cl,1.432
3,CCc1ccc(-c2nc3cc(NC(=O)OCc4ccc(Cl)cc4)ccc3o2)cc1,1.792
4,O=C(Nc1ccc2oc(-c3ccccc3)nc2c1)SCc1ccccc1,1.839
5,CCCCCCC(C)(O)C[N+](C)(C)[BH2-]C#N (stereo unspecified),3.344
6,CCCC[N+](C)(C)[BH2-]C#N [BUTYL(CYANOBORANYLIDENE)DIMETHYLAMINE],3.553
7,C[N+](C)([BH2-]C#N)CCCCCCCCCC[N+](C)(C)[BH2-]C#N,2.611
8,CCCCCCCCCCC[N+](C)(C)[BH2-]C#N,1.512
9,CCCCCCCCOP(=O)(OC)OC(Cn1cncn1)(Cn1cncn1)c1ccc(F)cc1F (stereo unspecified),2.962
10,CCc1ccc(-c2nc3cc(NC(=O)SCc4ccccc4)ccc3o2)cc1,2.161
11,CCCCCCCCCCC[N+](C)(C)[B-](Br)(Br)C#N,1.591
12,C[N+](C)([BH2-]C#N)C[Si](C)(C)C [(CYANOBORANYLIDENE)DIMETHYL[(TRIMETHYLSILYL)METHYL]AMINE],3.468
13,Cc1c(Cn2ccnc2)c2cc(Br)ccc2n1Cc1ccc(F)cc1,2.415
14,CCc1ccc(-c2nc3cc(NC(=O)OCc4ccccc4)ccc3o2)cc1,1.477
15,CC(=O)Oc1ccccc1C(=O)OC(Cn1cncn1)(Cn1cncn1)c1ccc(F)cc1F,3.413
16,CCCCCCCCCCC[N+](C)(C)[BH-](Br)C#N (stereo unspecified),1.69
17,O=C(Nc1ccc2oc(-c3ccc(F)cc3)nc2c1)c1ccccc1,2.1
18,C[N+](C)([BH2-]C#N)CCCCCCCCCCCC[N+](C)(C)[BH2-]C#N,1.982
19,O=C(Cc1ccc([N+](=O)[O-])cc1)Nc1ccc2oc(-c3ccc(F)cc3)nc2c1,1.532
20,CN(C)c1ccc(-c2nc3cc(NC(=O)OCc4ccc(Cl)cc4)ccc3o2)cc1,1.875
21,CN(C)c1ccc(-c2nc3cc(NC(=O)CCc4ccccc4)ccc3o2)cc1,1.82

row,SMILES,p(1/MIC)
1,C=CCCCC[N+](C)(C)[BH2-]C#N,1.973
2,CCCCC[N+](C)(C)[BH2-]C#N [(CYANOBORANYLIDENE)DIMETHYLPENTYLAMINE],2.909
3,O=P(O)(OCCCCCCCCCCCBr)OC(Cn1cncn1)(Cn1cncn1)c1ccc(F)cc1F,3.377
4,C[N+](C)(C)[B-](Br)(Br)C#N,3.295
5,CC(=O)OC(Cn1cncn1)(Cn1cncn1)c1ccc(F)cc1F,3.61
6,O=C(OC(Cn1cncn1)(Cn1cncn1)c1ccc(F)cc1F)C(Br)CCCCCCCCCCBr (stereo unspecified),1.342
7,CC(Br)C(=O)OC(Cn1cncn1)(Cn1cncn1)c1ccc(F)cc1F (stereo unspecified),3.172
8,O=C(Nc1ccc2oc(-c3ccc(F)cc3)nc2c1)OCc1ccccc1,1.785
9,Cc1c(Cn2ccnc2)c2cc(Br)ccc2n1Cc1ccccc1Cl,2.397
10,CCCCCCCCCCCC[N+](C)(C)[BH2-]C#N [(CYANOBORANYLIDENE)(DODECYL)DIMETHYLAMINE],1.785
11,C=CCCCCCCCCCOP(=O)(O)OC(Cn1cncn1)(Cn1cncn1)c1ccc(F)cc1F,3.445
12,CCCCCCCCC[N+](C)(C)[BH2-]C#N [(CYANOBORANYLIDENE)DIMETHYLNONYLAMINE],2.176
13,N#CCCOP(=O)(OCCCCCCCCCCCBr)OC(Cn1cncn1)(Cn1cncn1)c1ccc(F)cc1F (stereo unspecified),3.392
14,CCCCCCCCCCC[N+](C)(C)[BH-](F)C#N (stereo unspecified),1.806
15,CCCCCCCCCCCOP(=O)(OC)OC(Cn1cncn1)(Cn1cncn1)c1ccc(F)cc1F (stereo unspecified),3.138
16,CCCCC(Br)C(=O)OC(Cn1cncn1)(Cn1cncn1)c1ccc(F)cc1F (stereo unspecified),2.1
17,Clc1ccc(Cn2cc(Cn3ccnc3)c3ccccc32)c(Cl)c1,1.147
18,C[N+](C)(C)[BH2-]C#N [(CYANOBORANYLIDENE)TRIMETHYLAMINE],3.708
